# Where a name gives a salt, the structure may show the parent alone.
# Experiment: ICH-compliant stability study of ONC206-HCl Drug Substance (appearance, XRPD form, HPLC assay, purity/impurities, water content, particle size, microbial)
# Format: physicochemical
# Set-up: key to Each unidentified impurity (NMT 0.5% area) / Appearance (White to off-white solid) / Polymorphic form (XRPD) (Consistent with form 2 reference diffractogram): C = Conforms; A = Absence
# Method: The purpose of the ICH-compliant stability study was to evaluate the performance to specifications of ONC206-HCl Drug Substance under specified container closure configuration, storage conditions, and intervals.
# The study was performed according to ICH Q1A(R2) and QlE Guidance documents. […]
# The Container Closure Systems were: • Primary container: LDPE bag, 4×8 inches (Source: Nexus—64378); bag closure PE 180 nm (Source: Entourage), • Secondary container: LDPE bag, 4×8 inches (Source: Nexus—64378); bag closure PE 180 nm (Source: Entourage), • Tertiary container: Heat-sealed foil bag, 15×30 (Source: SERCALIA S.L.—10234), and • Outer container: Plastic drum, 6 L (Source: Curtec, HDPE ref 54021) or Plastic drum, 3.6 L (Source: Curtec).
# [1] = 25 ± 2° C./60% ± 5% RH long term storage conditions, 3 months
# [2] = 25 ± 2° C./60% ± 5% RH long term storage conditions, 6 months
# [3] = 25 ± 2° C./60% ± 5% RH long term storage conditions, 9 months
# [4] = 25 ± 2° C./60% ± 5% RH long term storage conditions, 12 months
# [5] = 30 ± 2° C./65% ± 5% RH intermediate conditions, 0 months
# [6] = 30 ± 2° C./65% ± 5% RH intermediate conditions, 6 months
# [7] = 30 ± 2° C./65% ± 5% RH intermediate conditions, 9 months
compound,measurement,setting,value
"O=C1C2=C(CCN(Cc3ccccc3)C2)N2CCN=C2N1Cc1ccc(F)cc1F [ONC206-HCl, 7-benzyl-4-(2,4-difluorobenzyl)-2,4,6,7,8,9-hexahydroimidazo[1,2-a]pyrido[3,4-e]pyrimidin-5(1H)-one]",Assay by HPLC-UV (Anhydrous & Solvent Free basis) 97.0-103.0% w/w,[1],99.1 % w/w
same,Each unidentified impurity (NMT 0.5% area),[1],C
same,Particle Size (Malvern) D10 (Report result μm),[1],28.3 μm
same,Particle Size (Malvern) D50 (Report result μm),[1],91.4 μm
same,Particle Size (Malvern) D90 (Report result μm),[1],199.0 μm
same,Polymorphic form (XRPD) (Consistent with form 2 reference diffractogram),[1],C
same,Purity by HPLC (NLT 98.0% area),[1],100.0 % area
same,Total impurities (NMT 2.0% area),[1],0.00 % area
same,Water Content by Kf (Report result % w/w),[1],9.5 % w/w
same,Appearance (White to off-white solid),[2],C
same,Assay by HPLC-UV (Anhydrous & Solvent Free basis) 97.0-103.0% w/w,[2],100.2 % w/w
same,Each unidentified impurity (NMT 0.5% area),[2],C
same,Particle Size (Malvern) D10 (Report result μm),[2],26.8 μm
same,Particle Size (Malvern) D50 (Report result μm),[2],88.5 μm
same,Particle Size (Malvern) D90 (Report result μm),[2],196.0 μm
same,Polymorphic form (XRPD) (Consistent with form 2 reference diffractogram),[2],C
same,Purity by HPLC (NLT 98.0% area),[2],100.0 % area
same,Total impurities (NMT 2.0% area),[2],0.00 % area
same,Water Content by Kf (Report result % w/w),[2],9.3 % w/w
same,Appearance (White to off-white solid),[3],C
same,Assay by HPLC-UV (Anhydrous & Solvent Free basis) 97.0-103.0% w/w,[3],100.4 % w/w
same,Each unidentified impurity (NMT 0.5% area),[3],C
same,Particle Size (Malvern) D10 (Report result μm),[3],30.2 μm
same,Particle Size (Malvern) D50 (Report result μm),[3],92.2 μm
same,Particle Size (Malvern) D90 (Report result μm),[3],192.0 μm
same,Polymorphic form (XRPD) (Consistent with form 2 reference diffractogram),[3],C
same,Purity by HPLC (NLT 98.0% area),[3],100.0 % area
same,Total impurities (NMT 2.0% area),[3],0.00 % area
same,Water Content by Kf (Report result % w/w),[3],9.3 % w/w
same,Appearance (White to off-white solid),[4],C
same,Assay by HPLC-UV (Anhydrous & Solvent Free basis) 97.0-103.0% w/w,[4],99.6 % w/w
same,Each unidentified impurity (NMT 0.5% area),[4],C
same,Particle Size (Malvern) D10 (Report result μm),[4],28.1 μm
same,Particle Size (Malvern) D50 (Report result μm),[4],91.3 μm
same,Particle Size (Malvern) D90 (Report result μm),[4],203.0 μm
same,Polymorphic form (XRPD) (Consistent with form 2 reference diffractogram),[4],C
same,Purity by HPLC (NLT 98.0% area),[4],100.0 % area
same,Total impurities (NMT 2.0% area),[4],0.00 % area
same,Water Content by Kf (Report result % w/w),[4],9.3 % w/w
same,period over which stability is confirmed,"30° C. (Table 43), 65% RH intermediate conditions",12 months
same,Appearance (White to off-white solid),[5],C
same,Assay by HPLC-UV (Anhydrous & Solvent Free basis) 97.0-103.0% w/w,[5],101.6 % w/w
same,Each unidentified impurity (NMT 0.5% area),[5],C
same,Particle Size (Malvern) D10 (Report result μm),[5],28.2 μm
same,Particle Size (Malvern) D50 (Report result μm),[5],91.4 μm
same,Particle Size (Malvern) D90 (Report result μm),[5],201.3 μm
same,Polymorphic form (XRPD) (Consistent with form 2 reference diffractogram),[5],C
same,Purity by HPLC (NLT 98.0% area),[5],100.0 % area
same,Total impurities (NMT 2.0% area),[5],0.00 % area
same,Water Content by Kf (Report result % w/w),[5],9.3 % w/w
same,Appearance (White to off-white solid),[6],C
same,Assay by HPLC-UV (Anhydrous & Solvent Free basis) 97.0-103.0% w/w,[6],99.2 % w/w
same,Each unidentified impurity (NMT 0.5% area),[6],C
same,Particle Size (Malvern) D10 (Report result μm),[6],29.3 μm
same,Particle Size (Malvern) D50 (Report result μm),[6],92.1 μm
same,Particle Size (Malvern) D90 (Report result μm),[6],199.0 μm
same,Polymorphic form (XRPD) (Consistent with form 2 reference diffractogram),[6],C
same,Purity by HPLC (NLT 98.0% area),[6],100.0 % area
same,Total impurities (NMT 2.0% area),[6],0.00 % area
same,Water Content by Kf (Report result % w/w),[6],9.3 % w/w
same,Appearance (White to off-white solid),[7],C
same,Assay by HPLC-UV (Anhydrous & Solvent Free basis) 97.0-103.0% w/w,[7],100.2 % w/w
same,Each unidentified impurity (NMT 0.5% area),[7],C
